# Assay results as given in a melting point compilation (Tetko et al.; mined from patent text by program, amines drawn as free bases though some values may be those of a salt).
# Residues, ends and D or L forms follow the SMILES beside them. *: point of attachment. Boc = CC(C)(C)OC(=O)*
row,Compound,melting point
1,CCN(CC)c1ccc(Nc2nc(N)c(C(=O)c3ccccc3[N+](=O)[O-])s2)cc1,202 to 205 °C
2,CCOC(=O)c1cnc2c(nc(C)n2C)c1Cl,85 to 90 °C
3,CCCCS(=O)(=O)OCCN(CCBr)c1c(C(=O)NCCOP(=O)(O)O)cc([N+](=O)[O-])cc1[N+](=O)[O-],123 to 125 °C
4,O=C(O)Cc1cccc(Oc2ccccc2Cl)c1O,103 to 105 °C
5,CCOC(=O)C(=Cc1ccc(NC)cc1[N+](=O)[O-])C(=O)OCC,113 to 114 °C
6,COc1ccc(-c2ncc(C(F)(F)F)cc2Cl)cc1,71 to 72 °C
7,CCn1c(Nc2cc(Cl)ccc2Cl)nc(C(F)(F)F)cc1=O,167 to 168 °C
8,CCN(CC)c1c([N+](=O)[O-])cc(C(F)(F)F)c(N2CCCC2=O)c1[N+](=O)[O-],94 to 95 °C
9,C=CS(=O)(=O)c1ccc(NC(C)=O)cc1,122 °C
10,CNS(=O)(=O)c1cnc2ccc(OC)cc2c1O,293 to 294 °C
11,Clc1ccc(C2=C[C@H](CN3CC=C(c4ccccc4)CC3)CCC2)cc1,138 to 141 °C
12,CN(C)c1cc(=S)ss1,193 °C
13,FC(F)(F)Oc1ccc(C=Cc2nc[nH]n2)cc1,125 to 127 °C
14,CCC(C)=NOC(=NC1CCCCC1)N(C(=O)c1ccccc1)C1CCCCC1,74 to 78 °C
15,CNC(=O)N(O)C(C)C#Cc1cccc(Oc2ccccn2)c1 (stereo not given),147 to 149 °C
16,CCOC(=O)CC[C@H](NC(=O)c1ccc2c(c1)CCN2)C(=O)OCC,96 to 97 °C
17,NS(=O)(=O)c1ccc(-c2cn(-c3nc(-c4ccc(Cl)cc4)cc(C(F)(F)F)n3)cn2)s1,284 °C
18,OCc1ccc(O)c(CO)c1CNCCCCCCOCCc1ccco1,91 to 93 °C
19,C[C@@H](c1ccc(Br)cc1)N(CC[C@](O)(CC(C)(C)O)c1ccccc1)C(=O)Oc1ccccc1,129 to 131 °C
20,CNC(=O)c1cnn(C(C)(C)C)c1C#N,162 to 165 °C
21,O=C(NCCC1CCCCC1)NCCC1CCCCC1,150 to 152 °C

row,Compound,melting point
1,CCOC(=O)COc1ccc(N(C)c2cc3ccc(Cl)cc3c(Cl)n2)cc1,99 °C
2,CC(C)c1nc(COCCOC(N)=O)n(Cc2ccccn2)c1Sc1cc(F)cc(F)c1,110 to 111 °C
3,N#Cc1cnc2sccc2c1Cl,100 to 103 °C
4,CN(C)CCNC(=O)Oc1ccc(Cl)cc1Cn1nc(-c2ccc(C(F)(F)F)cc2)oc1=O,158 to 159 °C
5,Fc1cc(CCl)c(F)cc1CCl,62.5 to 64.5 °C
6,CCOc1cc(CCC2OC(=O)NC2=O)ccc1O (stereo not given),154 to 155 °C
7,CCOC(=O)C(CC(=O)c1cccc(OC)c1)(NC(C)=O)C(=O)OCC,119 to 120 °C
8,O=S1N=C(NCCCN(Cc2cccs2)c2ccccn2)C(NCc2ccncc2)=N1 (stereo not given),129 to 130 °C
9,NS(=O)(=O)c1c(C(=O)O)cnn1-c1cccc(Cl)n1,179 to 182 °C
10,CCOC(=O)N1Cc2cc(NN=C(C)C)nnc2C(C)C1 (stereo not given),140 to 142 °C
11,O=C(Cc1ccccc1)OCCOC(=O)NC1(C(=O)O)CC1,142 to 146 °C
12,CC[C@@H](c1ccccc1)N(Cc1cccc(C(=O)O)c1)S(=O)(=O)c1ccc(Cl)cc1,65 to 67 °C
13,COc1ccc(C2=NN=C(C)C(C)c3cc(OC)c(OC)cc32)cc1OC (stereo not given),201 to 203 °C
14,CCCCc1nc(SCCCCCC(=O)O)c(C(=O)O)n1Cc1cc2c(cc1Cl)OCO2,128 °C
15,"CCCCCCCCCCCCOC(C)c1ccc(-c2ccc(C(=O)O)cc2)cc1 (single isomer, unassigned; (+))",70.5 °C
16,CCCCCNC(=O)CC(=O)O,67.5 to 68.5 °C
17,CCCN(c1ncnc2[nH]cnc12)n1ccc2ccccc21,90 to 95 °C
18,CCOc1c(OC)cc(COc2ccc(N)nn2)cc1OC,169 to 171 °C
19,O=c1[nH]c(=O)n(CCCCBr)c2cc(Cl)ccc12,180 to 182 °C
20,FC(F)(F)c1ccc(OCCC(Br)c2ccccc2)cc1 (stereo not given),61 to 63 °C
21,CC(C)n1nc(OCc2ccccc2)cc1CO,81 to 82 °C

row,Compound,melting point
1,c1ccc(COc2cc3ccncc3cc2OCc2ccccc2)cc1,97 °C
2,CC(C)c1cccc(C(C)C)c1OCC(N)=O,136 to 138 °C
3,O=c1c2ccccc2[nH]c2c(OCCCCN(CCCl)CCCl)cccc12,119 °C
4,CCOC(=O)c1ccc(CO)cn1,64 °C
5,COC(=O)C(C)=C1CCC2C3CCC4=CC(=O)CCC4(C)C3CCC12C (stereo not given),149 to 151 °C
6,BrC=C1c2ccccc2CCc2ccccc21,73.6 °C
7,CN1CC(CO)CC2(O)c3cccc4[nH]cc(c34)CC12 (stereo not given),175 to 179 °C
8,CCCNC(=O)C1(CCCCc2ccc([N+](=O)[O-])cc2)c2ccccc2-c2ccccc21,109 to 110 °C
9,O=C(O)Cn1cc(Cc2cccc([N+](=O)[O-])c2)c2ccccc21,163 to 165 °C
10,CCC(CO)Nc1nc(NCc2ccccc2N)c2ncn(C(C)C)c2n1 (racemic),149 to 151 °C
11,COCCOc1ccc(/C=C/C(=O)NS(=O)(=O)c2ccccc2)c(Oc2ncc(C(F)(F)F)cc2Cl)c1,136 °C
12,CC1(C)Oc2cc3nonc3cc2C(NC(=O)CCl)C1O (stereo not given),232 to 234 °C
13,CC1(C)CON(Cc2ccc(N)cc2Cl)C1=O,106 to 108 °C
14,O=C(c1cccs1)c1cnn2c(-c3cccc(-c4nnn[nH]4)c3)ccnc12,290 °C
15,CC(=O)OC[C@H]1OCC(=NO)[C@@H](OC(C)=O)[C@@H]1OC(C)=O,90 to 92 °C
16,CCOc1nnc2cc(Cl)ccc2n1,90 to 92 °C
17,COC(=O)CNC(=O)CNC(=O)OC(C)(C)C (Boc-Gly-Gly-OMe),132 to 135 °C
18,CN=c1nc(N)nc2sc3cc(OC)ccc3n12,208 to 209 °C
19,O=C(O)CCCCCc1nc2c(F)c(F)cc(F)c2s1,84 to 86 °C

# Second part, the molecule after the results:
row,melting point,Compound
1,147 to 150 °C,CCOC(=O)c1cn(C2CC2)c2cc(F)c(F)c(N(Cc3ccccc3)C(C)=O)c2c1=O
2,179 °C,COC(=O)c1cnc2n1CCc1ccccc1C2=C1CCN(CCc2ccc(OCc3ccc4ccccc4n3)cc2)CC1
3,252 to 254 °C,Cc1ccc(N2C(=O)C(O)=C(C(=O)c3ccc(C(C)C)cc3)C2c2ccc(C(C)C)cc2)cn1 (stereo not given)
4,105 to 107 °C,Oc1ccc2c(c1CNc1ccccc1)CCCO2
5,127 to 128 °C,COc1cccc(CC(=O)O)c1OCCCc1cn(-c2cc(C(F)(F)F)ccn2)nc1C(C)C
6,112 to 114 °C,COc1cc(C(=O)N2CCC(CCN3CCC(C(=O)c4nc5ccccc5n4Cc4ccc(F)cc4)CC3)(c3ccc4c(c3)OCO4)C2)cc(OC)c1OC (stereo not given)
7,157 to 160 °C,COc1ccccc1-n1c(=O)[nH]c2c(C(N)=O)nc(N[C@H]3CC[C@H](OC(N)=O)CC3)nc21
8,182 to 183 °C,Oc1ccc(C2=C(c3ccc(OC4CCCCO4)cc3)CCCc3cc(OC4CCCCO4)ccc32)cc1 (stereo not given)
9,197 to 198 °C,CCCCOc1c(CNC(=O)OC(C)(C)C)n(CC2CC2)c(=O)c2ccc(C(=O)O)cc12
10,197 °C,O=C(NCc1cccnc1)c1ccc2n1Cc1ccccc1N(C(=O)c1ccccc1)C2
11,149 to 152 °C,CCc1nc2c(C)cc(C)nc2n1Cc1ccc(-c2ccccc2)c(-c2nc(=O)o[nH]2)c1
12,100 to 102 °C,CN1CCN2CCNC2(c2ccccc2)c2cc(Cl)ccc21 (stereo not given)
13,84 to 86 °C,Cc1ccc(S(=O)(=O)OCC2Cc3cc(F)cc(Br)c3O2)cc1 (stereo not given)
14,83 to 85 °C,O=c1[nH]c2ccccc2n1CCNCc1ccc(CN2CCCCC2)o1
15,180 to 181 °C,O=C(Cc1ccccc1)Nc1ccc2oc3c(c2c1)CCCC3
16,70 to 71 °C,COc1cccc(-c2nnc(-c3ccoc3)o2)c1
17,220 to 222 °C,CC(=O)Nc1ccc(S(=O)(=O)Nc2cc(C)on2)cc1
18,194 to 196 °C,Cc1ccc(C(O)(c2ccc(C)cc2)[C@H](C)n2ccnc2)cc1
19,143 to 145 °C,CC(C)(C)c1cc(SCc2ccc(C#N)cc2)cc(C(C)(C)C)c1O
20,242 to 244 °C,O=C(c1ccccc1)N1CC2C(C1)C2Nc1ncc2cc(-c3ccccc3Cl)c(=O)n(-c3ccc(F)cc3)c2n1 (stereo not given)

row,melting point,Compound
1,186 °C,CCn1c(N)c(-c2ncc[nH]2)c(=O)c2ccc(-c3ccc(C(C)C(=O)NCc4ccncc4)cc3)nc21 (stereo not given)
2,167 to 168 °C,COc1cccc(-c2ccc3c(c2)NC(=O)OC3(C)C)c1
3,138 to 140 °C,COc1c(C)cnc(CSc2nc3cc4c(cc3[nH]2)OC(F)C(F)(F)O4)c1C (stereo not given)
4,77 to 79 °C,CC(=O)Oc1ccccc1CC1c2ccccc2Oc2ccccc21
5,82 to 83 °C,COc1cc(N)c(Cl)cc1C(=O)NCC1CCN(CCCOCc2ccccc2)CC1
6,233 °C,CCNCCCOc1ccc(-c2ccc(C(=O)O)cc2)cc1-c1ccc2c(c1)C(C)(C)CCC2(C)C
7,157 to 158 °C,c1ccc(CN2CCN(c3nc4cccc5c4n3CCC5)CC2)cc1
8,140 to 141 °C,O=C(O)CCN1CCN(C2=Nc3ccccc3Cc3ccccc32)CC1
9,187 to 188 °C,CC1(C)COC(c2cc3c(O)cccc3o2)=N1
10,190 to 195 °C,CC1=CN2C(=NC(c3ccc(C)cc3)C2C(=O)C(=O)O)C=C1 (stereo not given)
11,137 to 138 °C,Cc1c(C)c(N2CCN(c3ccc(F)cc3)CC2)c(C)c2c1OC(C)C2 (stereo not given)
12,338 to 340 °C,CC1=NN=C(c2cc3ccccc3s2)c2cc3oc(=O)[nH]c3cc2C1
13,141 to 142 °C,Cc1nnc(-c2ccnc(NCc3cccc(C(F)(F)F)c3)c2)o1
14,181 to 182 °C,O=C(NCCO)c1cccc(-c2ccc3c(n2)C(Oc2ccc(Cl)cc2Cl)CC3)c1 (stereo not given)
15,90.1 °C,COC1(OC)CCN(Cc2ccccc2)CC1O (stereo not given)
16,132 to 134 °C,O=C(NCCC1CCN(c2noc3cc(Cl)ccc23)CC1)c1nsc2ccccc12
17,171 to 173 °C,Cc1ccc2c(Cl)nccc2c1[N+](=O)[O-]
18,191 to 193 °C,COc1ccc2[nH]c3c(c2c1)CCC(NC(C)=O)C3 (stereo not given)
19,194 to 197 °C,CC(C)OC(=O)N1CCC(c2nc3cc(-c4ccc(C(N)=O)cc4F)ccc3o2)CC1
